The values that follow come from US5654427A, “Indolocarbazole derivatives to treat a pathological condition of the prostate” (Kyowa Hakko Kogyo Co., Ltd., priority 1995, dated 1997).

One assay addresses T1, trkA (Rattus norvegicus, UniProt P35739).
T1 construct: are rat pheochromocytoma cells that bear trkA; host or cells: PC12 rat pheochromocytoma cells
The assay is described as follows: inhibition of NGF-stimulated trk autophosphorylation (tyrosine phosphorylation) in PC12 cells, anti-phosphotyrosine Western blot. On trk 100 nM (inhibition of phosphorylation): key: +: Inhibited phosphorylation; -: Did not inhibit phosphorylation. On trk 500 nM (inhibition of phosphorylation): key: +: Inhibited phosphorylation; -: Did not inhibit phosphorylation. The conditions noted are these: for trk 100 nM (inhibition of phosphorylation) / trk 500 nM (inhibition of phosphorylation): NGF 50 ng/ml; for trk 500 nM (inhibition of phosphorylation): 500 nM compound. Format: cell-based. The procedure:
Candidate compounds for the inhibition of prostate cell proliferation were selected according to their ability to inhibit the tyrosine kinase activity associated with the trks.
PC12 cells (ATCC #CRL1721) are rat pheochromocytoma cells that bear trkA and differentiate into sympathetic neurons when treated with NGF. […] Cells were incubated at 37° C. in a humidified atmosphere of 10% CO2 and 90% air. […] The cells in each culture were disrupted and cell lysates were prepared by standard techniques known to those skilled in the art. Each lysate was incubated with anti-trk antibody whereby immune complexes were formed. […] The immune complexes were collected on Protein A-Sepharose beads, separated by SDS-polyacrylamide gel electrophoresis (SDS-PAGE), and transferred to polyvinylidene difluoride (PVDF) membranes (Millipore Corp., Bedford, Mass.), using techniques well known to those skilled in the art. The membranes were incubated with anti-phosphotyrosine antibody, which binds to the tyrosine phosphorylated trks, but not to the un-phosphorylated form of trks. Proteins bound to anti-phosphotyrosine antibody were visualized with enhanced chemiluminescence (ECL, Amersham), and are shown as dark "spots" in FIG. 1.
Measurement of the autophosphorylation of trk provides a good index of trk tyrosine kinase activity, and thereby of trk stimulation.
Inhibition was indicated by the absence of a spot migrating with the trk marker shown at the left side of the figure. Partial inhibition was indicated by a spot of reduced size.
On the technique in general: Immunoblotting shows a protein as a band on a membrane.

The test system of another assay is Tsu-Pr1. The assay is described as follows: growth inhibition of Tsu-Pr1 prostate cancer cells (calcein fluorescence). Conditions: Homo sapiens, TSU-Pr1, 72 h, read-out: Tsu-Pr1 IC50. Format: cell-based. The procedure: (§1) Throughout the experiment the Tsu-Pr1 and Du-Pro1 cells were maintained in RPMI 1640 medium (GIBCO) containing 10% fetal bovine serum (Hyclone), 2 mM glutamine, 100 U/ml penicillin, and 100 μg/ml streptomycin. The PC-3 cells were maintained in Ham's F12K medium (Irvine Scientific) containing 10% fetal bovine serum (Hyclone), 2 mM glutamine, 100 U/ml penicillin, and 100 μg/ml streptomycin. All cell lines were maintained at 37° C. in a humidified atmosphere containing 5% CO2. The DU-145 cells were maintained in minimal essential medium (Gibco), containing 10% fetal bovine serum (Hyclone), 2 mM glutamine, and no antibiotics.
(§2) Tests for growth inhibition by the candidate compounds were conducted by the following procedure. In each well of a 96-well plate (Falcon) were placed 2,500 cells in 0.1 ml of medium. The cultures were incubated overnight after which a 0.1 ml aliquot of culture medium was added to each well. […] Other control wells received medium without any K-252a derivative compounds. Incubation was continued for three days. On day three the number of cells in each well was measured using a calcein fluorescence assay (Bozyczko-Coyne et al. J. Neurosci. Meth. 50, 205-216 (1993)).
(§3) Calcein AM (Molecular Probes, Eugene, Oreg.), an analog of the viable dye fluorescein diacetate, is taken up by cells and cleaved intracellularly to fluorescent salts that are retained by intact membranes of viable cells. This method thus provides a reliable and quantitative measurement of cell survival. Calcein AM was diluted 2× in Dulbeccos phosphate buffered saline (D-PBS) to 2× the final assay concentration (6 μM) and 100 μl was added to culture wells containing 100 μl of medium. The plates were then incubated for 1 hour at 37° C. Cells were then washed 4 times with D-PBS to remove excess calcein not taken up by cells. The plate was read using a Millipore plate reading fluorimeter (Cytofluor 2350) at emission=485 nm and excitation=538 nm. After subtraction of blank values (wells containing medium but no cells), relative fluorescent values reflect a quantitative measurement of cell survival.
(§4) The number of cells in the wells containing functional derivatives was compared to the number of cells in the control wells. The concentration which inhibited cell growth by 50% was calculated and is referred to as the "IC50 ".

For another assay, the system named is Du-Pro1. Nature of the assay: growth inhibition of Du-Pro1 prostate cancer cells (calcein fluorescence). Format: cell-based. The conditions noted are these: Homo sapiens, 72 h, read-out: Du-Pro1 IC50. The procedure:
as §1, §2, §3, §4

The test system of a further assay is DU-145. Nature of the assay: growth inhibition of DU-145 prostate cancer cells (calcein fluorescence). Conditions: Homo sapiens, DU-145, 72 h, read-out: DU-145 C50. The format is cell-based. As for the experimental part: as §1, §2, §3, §4
For assay [1], the system named is androgen independent human prostate cancer cell lines Tsu-Pr1, DuPro-1, PC-3 and DU-145. Nature of the assay: growth inhibition of prostate cancer-derived cell lines, overall (calcein fluorescence). The format is cell-based. The conditions noted are these: Table 3. As for the experimental part:
as §1, §2
Calcein AM (Molecular Probes, Eugene, Oreg.), an analog of the viable dye fluorescein diacetate, is taken up by cells and cleaved intracellularly to fluorescent salts that are retained by intact membranes of viable cells. This method thus provides a reliable and quantitative measurement of cell survival. Calcein AM was diluted 2× in Dulbeccos phosphate buffered saline (D-PBS) to 2× the final assay concentration (6 μM) and 100 μl was added to culture wells containing 100 μl of medium. The plates were then incubated for 1 hour at 37° C. Cells were then washed 4 times with D-PBS to remove excess calcein not taken up by cells. The plate was read using a Millipore plate reading fluorimeter (Cytofluor 2350) at emission=485 nm and excitation=538 nm. After subtraction of blank values (wells containing medium but no cells), relative fluorescent values reflect a quantitative measurement of cell survival. […]

The test system of assay [2] is Dunning R-3327 AT-2.1 prostate tumor. The assay is described as follows: inhibition of growth of Dunning R-3327 AT-2.1 prostate tumor in adult male Copenhagen rats. Format: in vivo, rat. The conditions noted are these: 3 mg/kg/day s.c. The text has this:
The AT-2 tumor is a highly anaplastic cell line derived from the original slow-growing androgen-dependent Dunning R-3327 H rat prostate tumor (Issacs et al., Prostate 9:261-281, 1986). The AT-2 tumor model has been used to characterize other potential anti-prostatic cancer agents including linomide (Ichikawa et al., Cancer Research 52:3022-3028, 1992) and suramin (Morton et al., Prostate 17:327-336, 1990) which is undergoing evaluation in clinical trials for androgen-independentprostate cancer (Eisenberger et al., J. Natl. Can. Inst. 85: 611-621, 1993).
Experimental Protocol: Twenty-four inbred male Copenhagen rats were inoculated subcutaneously in the flank with 1×10^6 viable AT-2.1 tumor cells. All animals were allowed to develop tumors of approximately 2.7 cm^3 in size (approximately 14 days) before being randomized into three groups of 8 animals each. Group 1 received daily subcutaneous injections of vehicle alone (1 ml/kg body weight). […] All animals had their tumor sizes evaluated for a period of 16 days. Tumor volume was calculated using the formula (1×w^2)×0.5.

Structures are written as SMILES. Like-named read-outs stand apart in the source and are kept apart here.

T1 sequence (P35739 33-799): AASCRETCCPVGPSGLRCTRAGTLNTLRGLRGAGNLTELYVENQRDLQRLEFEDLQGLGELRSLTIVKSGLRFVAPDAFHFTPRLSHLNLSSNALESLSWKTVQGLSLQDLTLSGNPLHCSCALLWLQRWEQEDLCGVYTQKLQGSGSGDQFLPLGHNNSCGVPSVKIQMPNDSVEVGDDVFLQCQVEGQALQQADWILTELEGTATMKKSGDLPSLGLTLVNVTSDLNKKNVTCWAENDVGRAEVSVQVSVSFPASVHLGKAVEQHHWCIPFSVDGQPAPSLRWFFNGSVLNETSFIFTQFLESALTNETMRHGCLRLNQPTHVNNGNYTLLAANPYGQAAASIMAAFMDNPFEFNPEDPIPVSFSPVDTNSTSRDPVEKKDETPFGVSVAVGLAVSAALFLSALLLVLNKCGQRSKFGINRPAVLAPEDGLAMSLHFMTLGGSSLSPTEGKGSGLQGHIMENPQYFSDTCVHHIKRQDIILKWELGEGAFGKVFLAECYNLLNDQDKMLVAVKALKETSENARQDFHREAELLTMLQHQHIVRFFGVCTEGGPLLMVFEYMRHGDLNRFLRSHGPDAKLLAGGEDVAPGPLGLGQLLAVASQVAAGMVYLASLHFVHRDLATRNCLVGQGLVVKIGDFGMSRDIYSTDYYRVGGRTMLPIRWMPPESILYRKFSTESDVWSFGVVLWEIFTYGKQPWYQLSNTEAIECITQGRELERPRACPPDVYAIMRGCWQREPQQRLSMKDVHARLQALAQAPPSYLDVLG

Regarding `COC(=O)C1(O)CC2OC1(C)n1c3ccccc3c3c4c(c5c6cc(O)ccc6n2c5c31)C(=O)NC4` (stereo not drawn) [Compound I-5], the “trk 100 nM (inhibition of phosphorylation)” value on trkA (100 nM compound) was “+”. The IC50 is 70 nM in the assay on Tsu-Pr1, 60 nM with Du-Pro1 and 80 nM with DU-145. For the same compound, in assay [1], the “potency in inhibiting prostate cell line growth, in words” value was “most potent compounds in inhibiting growth in all four cell lines”. Besides, the “inhibiting growth of AT-2.1 tumors” value in assay [2] (approximately) is on record as 50-60%. Moreover, the “Tumor volume Day 0” value in assay [2] (vehicle 2.73 ± 0.50) was 2.70 ± 1.06 cm^3. The “Tumor volume Day 3” value in assay [2] (vehicle 6.66 ± 1.48) stood at 5.64 ± 1.32 cm^3. Moreover, the “Tumor volume Day 8” value in assay [2] (vehicle 21.0 ± 3.0) was determined as 10.7 ± 2.9 cm^3. The “Tumor volume Day 13” value in assay [2] (vehicle 37.3 ± 4.0) came out at 19.8 ± 5.6 cm^3. In addition, the “Tumor volume Day 16” value in assay [2] (vehicle 58.7 ± 5.0) is on record as 24.6 ± 6.2 cm^3.

For the compound `C[S+]([O-])CC1(O)CC2OC1(C)n1c3ccccc3c3c4c(c5c6ccccc6n2c5c31)C(=O)NC4` (stereo not drawn) [Compound I-8], on trkA (100 nM compound), the “trk 100 nM (inhibition of phosphorylation)” value was “-”. At trkA, the “trk 500 nM (inhibition of phosphorylation)” value is given as “+”. Also, in the assay on Tsu-Pr1 (3 days incubation), the IC50 was 540 nM.

For `CN1CC2(CC3OC2(C)n2c4ccccc4c4c5c(c6c7ccccc7n3c6c42)C(=O)NC5)OC1=O` (stereo not drawn) [Compound I-15], the “trk 100 nM (inhibition of phosphorylation)” value at trkA (100 nM compound) is “+”. In addition, the IC50 with Tsu-Pr1 (3 days incubation) is 510 nM.

For the compound `CN(C)CC1(O)CC2OC1(C)n1c3ccccc3c3c4c(c5c6ccccc6n2c5c31)C(=O)NC4` (stereo not drawn) [Compound I-16], the “trk 100 nM (inhibition of phosphorylation)” value at trkA (100 nM compound) is recorded as “+”. The IC50 with Tsu-Pr1 (3 days incubation) was 210 nM.

As for `CC12OC(CC1(O)CSC1O[C@H](CO)[C@@H](O)[C@H](O)[C@H]1O)n1c3ccccc3c3c4c(c5c6ccccc6n2c5c31)CNC4=O` (stereo partly drawn) [Compound I-20], the “trk 100 nM (inhibition of phosphorylation)” value on trkA (100 nM compound) is listed as “-”. Also, the “phosphorylation response (FIG. 1, spot)” value on trkA (100 nM compound, NGF, Western blot FIG. 1) is “somewhat diminished (a smaller spot was seen)”. Besides, the “trk 500 nM (inhibition of phosphorylation)” value at trkA is recorded as “+”. The IC50 with Tsu-Pr1 (3 days incubation) is 5700 nM.

`COC(=O)C1(O)CC2OC1(C)n1c3ccccc3c3c4c(c5c6ccccc6n2c5c31)C(=O)NC4=O` (stereo not drawn) [Compound I-22]: the “trk 100 nM (inhibition of phosphorylation)” value on trkA (100 nM compound) is “+”. Further, in the assay on Tsu-Pr1 (3 days incubation), the IC50 is 690 nM.

For `CC12OC(CC1(O)CO)n1c3ccc(Br)cc3c3c4c(c5c6cc(Br)ccc6n2c5c31)CNC4=O` (stereo not drawn) [Compound I-42], the “trk 100 nM (inhibition of phosphorylation)” value at trkA (100 nM compound) was “+”. Besides, the “trk 500 nM (inhibition of phosphorylation)” value at trkA is reported as “+”. The IC50 with Tsu-Pr1 (3 days incubation) was 90 nM.
